According to patent EP1247803A2, “Indolinone compounds suitable for modulation of protein kinases” (Sugen, Inc., priority 1996, dated 1998):

Columns and labels:
[1] = target: PDGF-R (Homo sapiens, UniProt P09619); experiment: PDGF-R ELISA; assay type: cell-based
Description: A PDGF-R ELISA is described in International Patent Publication No. WO 96/40116, published December 19, 1996 by Tang et al.

[2] = target: T1, EGFR (Homo sapiens, UniProt P00533); experiment: EGFR ELISA assay (in vitro kinase activity, EGFR captured from A431 cell lysate); assay type: biochemical; design: concentration or dose not given beside the values
T1 construct: Add 7 ug A431 cell lysate per well (EGFR source); endogenous in cells; host or cells: A431
Outline: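 EGFR from A431 lysate was captured on plates coated with anti-EGFR antibody. Compounds were added 30 min before a 5 min phosphorylation with 3 µM ATP/5 mM MnCl2, which was stopped with 20 mM EDTA. Phosphotyrosine was detected with rabbit anti-phosphotyrosine, then a peroxidase-conjugated secondary and ABTS/H2O2, read at 410 nm.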

[3] = system: MET; experiment: MET biochemical kinase assay; design: species or system human; concentration or dose not given beside the values
Outline: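 In this format, tyrosine phosphorylation of plate-captured human MET is followed in vitro after compound addition in ATP/divalent-cation buffer, detected by anti-phosphotyrosine-HRP with TMB substrate.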

T1 sequence (P00533 25-1210): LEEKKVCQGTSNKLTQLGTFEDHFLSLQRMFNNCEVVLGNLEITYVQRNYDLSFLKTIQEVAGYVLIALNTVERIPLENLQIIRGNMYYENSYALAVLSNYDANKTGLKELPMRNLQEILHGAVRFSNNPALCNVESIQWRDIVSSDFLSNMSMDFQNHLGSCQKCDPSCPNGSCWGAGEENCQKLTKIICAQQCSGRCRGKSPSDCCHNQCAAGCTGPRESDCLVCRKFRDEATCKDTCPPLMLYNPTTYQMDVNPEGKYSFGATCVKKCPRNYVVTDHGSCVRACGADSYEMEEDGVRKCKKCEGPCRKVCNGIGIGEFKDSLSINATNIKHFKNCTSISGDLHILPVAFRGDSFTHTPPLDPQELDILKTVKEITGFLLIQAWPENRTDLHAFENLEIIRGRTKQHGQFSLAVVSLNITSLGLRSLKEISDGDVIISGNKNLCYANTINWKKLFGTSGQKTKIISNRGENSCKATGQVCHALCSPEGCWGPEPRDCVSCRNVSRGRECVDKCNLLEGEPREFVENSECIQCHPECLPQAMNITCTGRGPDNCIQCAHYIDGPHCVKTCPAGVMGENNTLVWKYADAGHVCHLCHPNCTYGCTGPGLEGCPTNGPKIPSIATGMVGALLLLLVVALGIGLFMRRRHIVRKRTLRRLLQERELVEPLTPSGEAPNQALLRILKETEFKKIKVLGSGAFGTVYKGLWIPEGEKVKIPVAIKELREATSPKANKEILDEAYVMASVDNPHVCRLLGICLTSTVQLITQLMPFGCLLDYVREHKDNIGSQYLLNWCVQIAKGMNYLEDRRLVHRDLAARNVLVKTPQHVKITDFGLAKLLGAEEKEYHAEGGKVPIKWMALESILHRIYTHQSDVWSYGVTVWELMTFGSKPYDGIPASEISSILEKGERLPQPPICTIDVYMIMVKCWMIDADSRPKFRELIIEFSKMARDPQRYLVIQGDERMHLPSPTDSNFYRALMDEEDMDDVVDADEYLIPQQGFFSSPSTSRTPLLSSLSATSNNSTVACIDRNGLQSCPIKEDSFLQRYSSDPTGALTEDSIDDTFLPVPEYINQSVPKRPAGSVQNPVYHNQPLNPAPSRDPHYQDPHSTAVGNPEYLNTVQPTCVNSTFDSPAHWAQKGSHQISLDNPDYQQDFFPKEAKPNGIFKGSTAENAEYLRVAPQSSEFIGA
PDGF-R, sequence (P09619 33-1106, species assumed): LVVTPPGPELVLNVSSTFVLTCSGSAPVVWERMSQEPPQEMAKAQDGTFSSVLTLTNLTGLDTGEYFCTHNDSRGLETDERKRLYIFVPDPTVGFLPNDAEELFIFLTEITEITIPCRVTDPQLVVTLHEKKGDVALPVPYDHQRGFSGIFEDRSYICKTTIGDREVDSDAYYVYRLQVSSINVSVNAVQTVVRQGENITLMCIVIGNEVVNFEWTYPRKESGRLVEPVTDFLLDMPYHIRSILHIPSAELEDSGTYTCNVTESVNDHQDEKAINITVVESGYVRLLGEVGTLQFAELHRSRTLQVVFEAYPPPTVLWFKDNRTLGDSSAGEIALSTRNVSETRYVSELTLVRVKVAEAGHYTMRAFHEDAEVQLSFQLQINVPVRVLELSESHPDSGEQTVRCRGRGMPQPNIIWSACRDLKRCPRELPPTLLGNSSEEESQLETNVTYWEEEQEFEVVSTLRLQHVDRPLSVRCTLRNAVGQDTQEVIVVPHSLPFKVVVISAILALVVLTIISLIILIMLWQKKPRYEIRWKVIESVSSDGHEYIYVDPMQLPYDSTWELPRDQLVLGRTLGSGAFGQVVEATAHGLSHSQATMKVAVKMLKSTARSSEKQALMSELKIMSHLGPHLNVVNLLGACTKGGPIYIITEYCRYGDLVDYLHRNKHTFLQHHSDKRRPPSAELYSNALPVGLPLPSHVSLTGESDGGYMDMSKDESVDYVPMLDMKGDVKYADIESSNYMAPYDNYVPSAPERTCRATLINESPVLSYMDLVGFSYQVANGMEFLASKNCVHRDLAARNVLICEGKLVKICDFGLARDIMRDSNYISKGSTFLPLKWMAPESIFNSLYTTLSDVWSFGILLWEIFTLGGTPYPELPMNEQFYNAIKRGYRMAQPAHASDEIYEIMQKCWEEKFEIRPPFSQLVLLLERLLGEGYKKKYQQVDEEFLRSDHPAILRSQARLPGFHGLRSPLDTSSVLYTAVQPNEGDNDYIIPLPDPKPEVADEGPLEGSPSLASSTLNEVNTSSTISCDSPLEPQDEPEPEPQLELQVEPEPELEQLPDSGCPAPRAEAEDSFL

SMILES | PDGF Kinase %Inhibition [1] [%] | Biochem EGFR %Inhibition [2] [%] | Met Kinase % Inhibition [3] [%]
COc1cc(C)cc(O)c1C=C1C(=O)Nc2ccc(I)cc21 [10725/B06] | 31.3 | -13.7 | 53.3
O=CN1CCN(c2ccc(C=C3C(=O)Nc4ccc(I)cc43)cc2)CC1 [10725/B07] | 100.8 | 45.8 | 74.0
O=C1Nc2ccc(I)cc2C1=Cc1ccc(N2CCOCC2)cc1 [10725/B08] | 29.4 | 41.8 | 66.7
COC(=O)Cc1c(Cl)[nH]c(C=C2C(=O)Nc3ccc(I)cc32)c1C(=O)OC [10725/B09] | 43.8 | 72.3 | 65.7
O=C1Nc2ccc(I)cc2C1=Cc1c(Br)cnn1-c1ccc(Cl)cc1 [10725/B10] | 26.0 | 53.3 | 69.9
O=C1Nc2ccc(I)cc2C1=Cc1c[nH]cn1 [10725/B11] | 66.3 | 43.0 | 76.3
